Experimental data from paper PMC7355942, “Cytotoxicity Evaluation of Novel bis(2-aminoethyl)amine Derivatives” (Molecules, 2020).

How the values were obtained:
[1] = tested on: A549 cells (epithelial lung carcinoma); experiment: MTT cytotoxicity assay, A549; assay type: cell-based, human; details: for IC50: A549, MTT, mean ± SD; for SI (Selectivity Index): IC50 for normal cell line (HaCaT)/IC50 A549
Source text: (§1) All derivatives of bis(2-aminoethyl)amine were screened for their in vitro cytotoxic activity against a panel of human cancer cell lines, namely colorectal adenocarcinoma (CaCo-2), epithelial lung carcinoma (A549), and melanoma (HTB-140), which is contrary to normal (HaCaT) cell lines, by using the MTT method.
(§2) Description related to conducted biological studies including cell culture, suitable conditions, and methodology was presented in our previous paper.

HTB-140 cells (melanoma) = experiment: MTT cytotoxicity assay, HTB-140; assay type: cell-based, human; details: for IC50: HTB-140, MTT, mean ± SD; for SI (Selectivity Index): IC50 for normal cell line (HaCaT)/IC50 HTB-140
Source text: as §1, §2

[2] = tested on: CaCo-2 cells (colorectal adenocarcinoma); experiment: MTT cytotoxicity assay, CaCo-2; assay type: cell-based, human; details: for IC50: Homo sapiens, CaCo-2, MTT, mean ± SD; for SI (Selectivity Index): IC50 for normal cell line (HaCaT)/IC50 CaCo-2
Source text: as §1, §2

[3] = tested on: HaCaT cells (immortal keratinocytes); experiment: MTT cytotoxicity assay, HaCaT normal cells; assay type: cell-based, human; details: mean ± SD
Source text: as §1, §2

CaCo-2 cells = experiment: Apoptosis, Annexin V-FITC/7-AAD flow cytometry, CaCo-2; assay type: cell-based, human; details: CaCo-2, IC50 concentration, 72 h
Description: (§3) To establish in vitro, the anti-proliferative mechanism of activity, the influence of bis(2-aminoethyl)amine derivatives on early and late apoptosis was performed, using flow cytometry analysis (Figure 7).
as §2
(§4) Figure 7 The effect of derivatives 3–6 on early and late apoptosis, or necrosis in HaCaT, CaCo-2, A549, and HTB-140 cells. Cells were incubated for 72 h with tested compounds and used in their IC50 concentrations. Then cells were harvested, stained with Annexin V-FITC and 7-AAD, and analyzed using flow cytometry. Data are expressed as the percentage of cells at an early stage of apoptosis or late stage of apoptosis or necrosis. Data are given as means ± SD, *** p ≤ 0.001, ** p ≤ 0.01, as compared to the control.

A549 cells = experiment: Apoptosis, Annexin V-FITC/7-AAD flow cytometry, A549; assay type: cell-based, human; details: A549, IC50 concentration, 72 h
Description: as §3, §2, §4
Figure 8 The effect of compounds 3–6 on early and late apoptosis or necrosis in A549 cells, detected with Annexin V-FITC/7-AAD by flow cytometry. […] The upper right and upper left quadrants represent the late stage of apoptotic or necrotic cells (Annexin V-FITC positive, 7-AAD positive, Annexin V-FITC negative and 7-AAD positive staining, respectively). The lower left quadrant represents unstained A549 cells (Annexin V-FITC negative, 7-AAD negative). TEXT PRINTED IN THE PICTURE: 3: 0,1; 26,6; 36,9; 36,5 | 4: 0,1; 23,4; 47,2; 29,3 | 5: 0,2; 42,5; 28,4; 28,9 | 6: 0,2; 37,6; 19,5; 42,7 DOUBTS OF THE COPYIST ABOUT THIS PICTURE: 3, lower left quadrant value: 36,9, printed over the dot cloud, so the digits 6 and 9 are not fully certain / 6, lower left quadrant value: 19,5, partly printed over the dot cloud, so the digits 9 and 5 are not fully certain / The quadrant numbers are printed with no measure or unit. They are listed in the order upper left, upper right, lower left, lower right / The Control plot (0,1; 5,2; 87,4; 7,3) was left out because it is not a substance

[4] = tested on: panel of human cancer cell lines (CaCo-2, A549, HTB-140) and normal HaCaT cells; experiment: MTT cytotoxicity assay, statements over the whole cell panel; assay type: cell-based; details: for antiproliferative / cytotoxic activity in words: chosen cancer and normal cell lines; for IC50: Homo sapiens, all cancer cell lines (CaCo-2, A549, HTB-140), read-out: IC50, range over cancer cell lines
Source text: as §1, §2

[5] = tested on: interleukin-6 (IL-6) release, A549 cells; experiment: Interleukin-6 assay (ELISA), A549; assay type: cell-based, human; details: A549, IC50 dose
Source text: (§5) The mechanism of cytotoxic action of bis(2-aminoethyl)-amine derivatives can be associated with reducing interleukin-6 (IL-6) levels, which include the strong pro-inflammatory particles.
as §2
(§6) Figure 9 Effects of compounds 3–6 on IL-6 levels, measured by the ELISA test. Data are expressed as the mean ± SD from three independent experiments, performed in triplicate. *** p ≤ 0.001, ** p ≤ 0.01, * p ≤ 0.05, as compared to the control.

[6] = tested on: HaCaT cells (normal keratinocytes); experiment: Lactate dehydrogenase (LDH) release assay, HaCaT; assay type: cell-based, human; details: 72 h
Description: (§7) Lactate dehydrogenase assay (LDH) as a marker of cell death was evaluated for synthesized ethylthioureas 1–7. The compounds were tested at concentrations of 10, 50, and 100 µM. At the lowest dose, no activity was observed.
as §2
(§8) Figure 6 LDH release as a marker of a cell death in the HaCaT, HTB-140, CaCo-2, A549 cells, treated for 72 h with various concentrations of derivatives 3–6 (100 µM for compounds 3–5, 100 and 50 µM for 6). Data are expressed as the mean ± SD from three independent experiments, performed in triplicate. *** p ≤ 0.001, ** p ≤ 0.01, as compared to the control.

HTB-140 cells = experiment: Apoptosis, Annexin V-FITC/7-AAD flow cytometry, HTB-140; assay type: cell-based, human; details: HTB-140, IC50 concentration, 72 h
Description: as §3, §2, §4

[7] = tested on: HaCaT, HTB-140, CaCo-2, A549 cells; experiment: Lactate dehydrogenase (LDH) release assay, statements over several cell lines; assay type: cell-based, human; details: pathological cell lines (HTB-140, CaCo-2, A549), 50 µM, 72 h
Description: as §7, §2, §8

[8] = tested on: interleukin-6 (IL-6) secretion, HTB-140 cells; experiment: Interleukin-6 assay (ELISA), HTB-140; assay type: cell-based, human; details: HTB-140, IC50 dose
Source text: as §5, §2, §6

| SMILES | IC50 ([1]; Homo sapiens) | SI (Selectivity Index) [1] | IC50 (HTB-140 cells (melanoma); Homo sapiens) | SI (Selectivity Index) (HTB-140 cells (melanoma)) | IC50 [2] | SI (Selectivity Index) [2] | IC50 ([3]; Homo sapiens) | late apoptosis (A549 cells) | antiproliferative / cytotoxic activity in words [4] | also measured |
| --- | --- | --- | --- | --- | --- | --- | --- | --- | --- | --- |
| COc1cccc2c1C(=O)c1c(O)c3c(c(O)c1C2=O)C[C@@](O)(C(=O)CO)C[C@@H]3O[C@H]1C[C@H](N)[C@H](O)[C@H](C)O1 [Doxorubicin, reference compound] | 0.63 ± 0.21 µM | 1.73 | 0.47 ± 0.18 µM | 2.32 | 0.53 ± 0.23 µM | 2.06 | 1.09 ± 0.23 µM |  |  |  |
| Fc1ccc(NC(=S)NCCN(CCNC(=S)Nc2ccc(F)c(Cl)c2)C(=S)Nc2ccc(F)c(Cl)c2)cc1Cl [Compound 5, 3-(3-chloro-4-fluorophenyl)-1,1-bis{2-[3-(3-chloro-4-fluorophenyl)thioureido]ethyl}thiourea] | 15.4 ± 2.1 µM | 1.21 | 14.8 ± 3.2 µM | 1.27 | 17.9 ± 2.8 µM | 1.05 | 18.8 ± 4.3 µM | 42.7% |  | late apoptosis (CaCo-2 cells): 32.8% |
| COc1ccc(NC(=S)NCCN(CCNC(=S)Nc2ccc(OC)cc2)C(=S)Nc2ccc(OC)cc2)cc1 [Compound 1, 3-(4-methoxyphenyl)-1,1-bis{2-[3-(4-methoxyphenyl)-thioureido]ethyl}thiourea] | > 100 µM |  | > 100 µM |  | > 100 µM |  | > 100 µM |  | biologically inactive |  |
| S=C(NCCN(CCNC(=S)Nc1ccc(Cl)cc1)C(=S)Nc1ccc(Cl)cc1)Nc1ccc(Cl)cc1 [Compound 3, 3-(4-chlorophenyl)-1,1-bis{2-[3-(4-chlorophenyl)thioureido]ethyl}thiourea] | 25 ± 2.4 µM | 1.19 | 22.6 ± 2 µM | 1.32 | 27.7 ± 3.7 µM | 1.08 | 29.9 ± 1.8 µM | 23.5% |  | decrease of the IL-6 concentration ([5]; versus control): 1.7 times; IC50 [4]: 22.6 to 27.7 µM; LDH release ([6]; 100 µM): 13.8% |
| S=C(NCCN(CCNC(=S)Nc1ccccc1)C(=S)Nc1ccccc1)Nc1ccccc1 [Compound 2, 3-phenyl-1,1-bis[2-(3-phenylthioureido)ethyl]thiourea] | > 100 µM |  | > 100 µM |  | > 100 µM |  | > 100 µM |  | biologically inactive |  |
| COc1ccc(NC(=S)N(CCNc2nnnn2-c2ccc(OC)cc2)CCNc2nnnn2-c2ccc(OC)cc2)cc1 [Compound 7, 3-(4-methoxyphenyl)-1,1-bis(2-{[1-(4-methoxyphenyl)-1H-tetrazol-5-yl]amino}ethyl)thiourea] | > 100 µM |  | > 100 µM |  | > 100 µM |  | > 100 µM |  | biologically inactive |  |
| N.N.[Cl][Pt][Cl] [Cisplatin, reference compound] |  |  |  |  |  |  |  |  |  | IC50 [1]: 1.95 ± 0.83 µM; IC50 (HTB-140 cells (melanoma)): 1.13 ± 0.19 µM; IC50 [3]: 2.84 ± 1.06 µM |
| S=C(NCCN(CCNC(=S)Nc1ccc(Br)cc1)C(=S)Nc1ccc(Br)cc1)Nc1ccc(Br)cc1 [Compound 4, 3-(4-bromophenyl)-1,1-bis{2-[3-(4-bromophenyl)thioureido]ethyl}thiourea] | 16.8 ± 1.9 µM | 1.15 | 14.7 ± 1.5 µM | 1.35 | 17.2 ± 1.9 µM | 1.12 | 19.3 ± 3.5 µM | 26.7% |  | inhibition of interleukin release as compared to the control, in words [5]: tenfold; early apoptosis (HTB-140 cells): 28.6% |
| S=C(NCCc1ccccc1)NCCN(CCNC(=S)NCCc1ccccc1)C(=S)NCCc1ccccc1 [Compound 6, 3-phenethyl-1,1-bis[2-(3-phenethylthioureido)ethyl]thiourea] | 15 ± 1.7 µM | 1.08 | 14 ± 2.5 µM | 1.16 | 15.7 ± 1.7 µM | 1.02 | 16.1 ± 5.7 µM | 37.8% |  | early apoptosis (CaCo-2 cells): 55.7%; LDH secretion [7]: 8.09–10.4%; IC50 [4]: 14 to 15.7 µM; inhibition of IL-6 secretion, in words [8]: two-fold; LDH release ([6]; 50 µM): 8.3%; LDH release ([6]; 100 µM): 17.9% |
